Entries after “also recorded” stand apart in the source; their conditions may differ.
Experiments:
TEAD = assay: TEAD-500 score (TEAD-dependent transcription) in NCI-H226 cells grown in vitro; assay type: cell-based, human; conditions: NCI-H226 malignant mesothelioma cells in vitro, treated for 24 hours
Text: (§1) TEAD-dependent transcription was scored in single samples as the difference Rp-Rn, where Rp is the mean fractional rank of the positive TEAD-effectors, and Rn, that of the negative effectors.
We considered the most abundant transcript of a gene as the representative of the expression of the gene. We, therefore, retain the expression level of the major transcript (maximum level-value per gene and sample, level values may be expression-array signals, RNA sequencing counts, fragments per kilobase per million counts (FPKM), transcripts per million (TPM), or whatever other metric is conveniently used) and discarded the values of all other transcripts. The maximum expression levels of the genes were transformed into fractional ranks by dividing with the maximum expression value of all genes (most abundant gene) observed within a sample. No other normalization is required.
All cell lines were grown at 37° C. under five percent CO2. MSTO-211H (#CRL-2081), NCI-H226 (#CRL-5826), NCI-H2052 (#CRL-5915), NCI-H28 (#CRL-5820), and HCT116 (#CCL-247) were purchased from the American Type Culture Collection (ATCC, Manassas, VA, USA) and cultured according to supplier's recommendation. […]
Fresh tumors were preserved in RNAlater (Thermo Fisher) and frozen at […]. […] The RNA concentration and purity were evaluated with an ND-1000 spectrophotometer (NanoDrop, Thermo Fisher). […]

CYR61 = CYR61 (CCN1) marker of TEAD activity, RNA and protein (ELISA) level, in NCI-H226 cells; assay type: cell-based, human; conditions: NCI-H226 cells in vitro, treated for 24 hours
Protocol: The latter protein markers were measured by ELISA assays. Cell lysates were diluted 1/500 in cell lysis buffer. A minimum of four biologic replicates were analyzed for each model. In the reading plate, standards and samples are run in duplicate. hCYR61 was assessed using the human Cyr61 Quantikine™ Colorimetric Sandwich ELISA Kit (R&D Systems, Minneapolis, MN). Diluted lysates were processed and analyzed as described in the manufacturer's instructions. Absorbance values were read using a microplate reader set to 450 nm.
So did the RNA and protein levels of the classical secreted marker of Hippo pathway activity, CYR61 (FIG. 3C).

NCI-H226 cells = assay: In vivo efficacy in subcutaneous NCI-H226 xenografts in SCID mice; conditions: NCI-H226 xenograft
Protocol: Female CB17/Icr-Prkdc^scid/IcrIcoCrl mice (6-8 weeks old) were bred at Charles River (Les Oncins, France), housed in Sanofi AAALAC accredited animal facilities, and were provided with irradiated food and filtered water ad libitum.
(§2) In vivo efficacy studies of the K-975 compound were performed in SCID mice inoculated subcutaneously into the right flank with 3×10^6 MSTO-211H or NCI-H226 cells. Mice bearing around 200 mm3 subcutaneous MSTO-211H tumors or 150 mm3 subcutaneous NCI-H226 tumors were randomly assigned to […] of 8 mice/group and treated with either vehicle or K-975 compound twice daily at 30, 100, and 200 mg/kg for 18 consecutive days. Tumor perpendicular diameters were measured twice a week with a caliper, and tumor volume (V) was calculated according to the following equation: V (mm3)=(d2 (mm2)×D (mm))/2, where d is the smallest, and D the largest perpendicular tumor diameters.
The same type of events was observed when SCID mice implanted with malignant mesothelioma parental NCI-H226 cells were treated with 200 mg/kg BID of the benchmark TEAD-inhibitor K-975 (Kaneda A et al. Am J Cancer Res. 2020; 10(12):4399-4415) for 17 consecutive days (FIG. 5). […] The TEAD-500 score correlates, therefore, with tumor behavior under treatment and can be used as a marker of the pharmacodynamics or efficacy of a drug.

[1] = test system: TEAD-dependent transcription; assay: TEAD-500 score as pharmacodynamic marker in NCI-H226 xenograft tumors; assay type: in vivo; conditions: SCID mice, 200 mg/kg BID, in 24 h, sufficient for tumor regression
Protocol: as §1, §2
Fresh tumors were preserved in RNAlater (Thermo Fisher) and frozen at […]. Copurification of miRNA and total RNA was performed using a miRNeasy Mini Kit (QIAGEN, 217004). The RNA concentration and purity were evaluated with an ND-1000 spectrophotometer (NanoDrop, Thermo Fisher). Quality metrics are the RNA Integrity Number (RIN) and DV200 value (% of RNA fragments with a length≥200 nt). 100 ng total RNA per sample was used as input material for the library preparation. […]

Q: `C=CC(=O)Nc1ccc(C)c(Oc2ccc(Cl)cc2)c1` [K-975] was tested. Which TEAD-500 score (TEAD) did it give?
A: Its TEAD-500 score is “Dose-dependent regression; also recorded: regressed in a dose-dependent manner”.

Q: What about the “RNA level of CYR61 (CCN1)” value (CYR61) of the same compound?
A: The value was “inhibition; also recorded: regressed in a dose-dependent manner”.

Q: And the “protein level of CYR61 (CCN1)” value (CYR61)?
A: The value was “inhibition; also recorded: regressed in a dose-dependent manner”.

Q: What about the “tumor behavior under treatment” value (NCI-H226 cells; 30 mg/kg BID) of the same compound?
A: The value was “inactive”.

Q: And the “tumor behavior under treatment” value (NCI-H226 cells; 100 mg/kg BID)?
A: The value was “almost tumor stasis”.

Q: And the ΔT/ΔC (NCI-H226 cells; 100 mg/kg BID)?
A: The ΔT/ΔC was 12.

Q: And the “tumor behavior under treatment” value (NCI-H226 cells; 200 mg/kg BID, 17 consecutive days)?
A: The value was “tumor regression”.

Q: And the “inhibition of the TEAD-dependent transcription (TEAD-500 score)” value [1]?
A: The value was 30-40%.

Reference: patent US20260035750A1, “TRANSCRIPTIONAL REGULATORS OF THE TEAD FAMILY” (Sanofi, priority 2022, published 2026)
